“Also recorded” adds a separate entry of the source.
Tests used:
[1] = biological target: T1, GFP-AR (GFP-tagged androgen receptor, eGFP-hAR) (Homo sapiens, UniProt P10275); assay: GFP-AR cytoplasm-to-nucleus translocation assay in 3108 cells; format: cell-based; conditions: 30 min treatment, hormones 100 nM or known concentrations, water samples 100×
T1 construct: expressed in transfected cells; host or cells: 3108 cells (derivative of the 3134 mouse mammary adenocarcinoma line), tetracycline-repressible promoter
Experimental: (§1) For biological testing, samples prepared as above were reconstituted in DMSO and diluted in growth media to a final 1,000× concentration from the original water volume while maintaining DMSO at <0.2%. Samples were added to cells for 30 minutes at 100× concentration or as indicated in the text.
Prior to imaging, cells were grown overnight on 22-mm^2 coverslips in DMEM medium containing 10% charcoal stripped serum (Hyclone, Logan, Utah) without tetracycline (to allow the expression of the GFP-GR or GFP-AR, respectively) at a density of 2×10^5 per 6-well plate. For the automated experiments conducted in 96 or 384 well plates, cell density was 10,000 or 2,500 cells per well, respectively. Cells were treated with vehicle control, hormones (100 nM) or water samples for 30 min at 37° C. at a final concentration of 100× for water samples (unless otherwise specified). […]
(§2) A Perkin Elmer Opera Image Screening System was used for fully automated collection of fluorescence images of cells. This system employed a 40× water immersion objective lens, laser illuminated Nipkow disk, and cooled CCD cameras to digitally capture high resolution confocal fluorescence micrographs (300 nm pixel size with 2×2 camera pixel binning). […] The algorithm also measured the mean GFP-GR or GFP-AR intensity in both compartments, and translocation was calculated as a ratio of these intensities. […]

[2] = biological target: T2, GFP-GR (GFP-tagged glucocorticoid receptor) (Rattus norvegicus, UniProt P06536, C656G/D98G); assay: GFP-GR cytoplasm-to-nucleus translocation assay in 3617 cells; format: cell-based; conditions: 30 min treatment; water samples 100×
T2 construct: expressed in transfected cells; host or cells: 3617 cells (derivative of the 3134 mouse mammary adenocarcinoma line), tetracycline-repressible promoter
Experimental: as §1
Prior to imaging, cells were grown overnight on 22-mm^2 coverslips in DMEM medium containing 10% charcoal stripped serum (Hyclone, Logan, Utah) without tetracycline (to allow the expression of the GFP-GR or GFP-AR, respectively) at a density of 2×10^5 per 6-well plate. For the automated experiments conducted in 96 or 384 well plates, cell density was 10,000 or 2,500 cells per well, respectively. Cells were treated with vehicle control, hormones (100 nM) or water samples for 30 min at 37° C. at a final concentration of 100× for water samples (unless otherwise specified). Additional negative controls contained samples that tested the activity of the POCIS membranes themselves.
Upon treatment, cells were fixed with 4% paraformaldehyde in PBS for 15 minutes and washed three times with PBS. Cells on the 22-mm^2 coverslips were mounted in […]® mounting media with DAPI (Vector Laboratories, Inc.) and examined on a Leica DMRA microscope with Leica 100×1.3-N.A. oil immersion objective. Images were acquired in green (GFP-GR and GFP-AR) and UV (DAPI) channel with SenSys (Photometrics) camera with KAF1400 chip configured to collect 0.067-μm-diameter pixels. […]
as §2

SMILES | GFP-AR nuclear translocation (in words) [1] | GFP-AR nuclear translocation (in words) ([1]; listed as androst-4-en-3,6-dione) | GFP-GR nuclear translocation (in words) [2]
C[C@@]12CCC[C@H]1[C@@H]1CC(=O)C3=CC(=O)CC[C@]3(C)[C@H]1CC2 (single isomer, unassigned) [Androst-4-en-3,6-dione] | induced GFP-tagged androgen receptor (GFP-AR) translocation | translocated to the nucleus in concentration-dependent manner; also recorded: induces concentration-dependent translocation | did not induce GFP-GR translocation
CCNc1nc(Cl)nc(NC(C)C)n1 [atrazine] | – | – | did not induce GFP-GR translocation
C[C@]12C[C@H](O)[C@H]3[C@@H](CCC4=CC(=O)CC[C@@]43C)[C@@H]1CC[C@@H]2C(=O)CO [corticosterone] | – | – | translocates to the nucleus in a concentration-dependent manner

Reference: patent US9040248B2, “Kits for detecting and monitoring endocrine disrupting chemicals (EDCs)” (The United States of America, as represented by the …, priority 2012, dated 2015)
